Source: US20070135412A1, “Compounds for the treatment of ocular dryness caused by photorefractive surgery” (priority 2003, published 2007)

Assays:
[1] = system: fibres innervating the cornea (polymodal nociceptive fibres); test: Extracellular recording of corneal nerve fibres in cats with a corneal wound, before and after topical drug application; assay type: in vivo, cat; conditions: anaesthetized cats 7 and 15 days after circular corneal wound; for responses evoked by pulses of CO2 of 30 s duration: 98% CO2 on receptor field around the lesion, before vs after topical application (same concentration ranges); for spontaneous activity of the fibres innervating the zones around the lesion: before vs after topical application (carbamazepine 0.001-0.01%, phenyloin 0.001-0.1%, mexiletine 0.001-0.1%, lidocaine 0.0005-0.01%, tocaidine 0.001-0.01%)
Method: Tests were carried out on fifteen adult cats of both sexes, anaesthetized with pentobarbital sodium (Nembutal, 40 mg/kg, i.p.). The cornea of both eyes was anaesthetized topically by instillation of tetracaine 0.1% and oxybuprocaine hydrochloride 0.4%.
A circular wound was made in the centre of the cornea with a 5 mm dia. trepan which penetrated 40-50 μm below the Bowman membrane. The animals were treated with topical and systemic antibiotics, leaving them to recover for 1-2 weeks.
The recording tests were carried out 7 and 15 days after surgery. The animals were anaesthetized with Nembutal (40 mg/kg, i.p.) and were maintained in a state of areflexia during the experiment by intravenous infusion of dilute Nembutal (5 mg/kg) in the saphenous vein. The animals breathed spontaneously through a tracheal cannula. Respiratory CO2, rectal temperature and arterial pressure were monitored continuously and were kept stable. The animals were sacrificed with an overdose of Nembutal at the end of the experiment.
Extracellular recording was made of nerve fibres isolated from the cornea, obtained from the ciliary nerves of the eye, using silver/silver chloride electrodes and conventional electrophysiological equipment, as described previously (cf. Belmonte, C., Gallar, J., Pozo, M. A., Rebollo, I. (1991) Excitation by irritant chemical substances of sensory afferent units in the cat's cornea. J. Physiol. 437: 709-725).
The corneal sensory fibres were identified by their response to mild stimulation with a wet brush. The mechanical threshold was measured with a Cochet-Bonnet aesthesiometer with a No. 12 filament (0.1-1.9 mN) and with calibrated von Frey hairs (0.002-2.0 N). The receptor fields were mapped with a suprathreshold force hair. Sensitivity to chemical stimuli was investigated by applying a pulse of gas containing 98% CO2 at a flow rate of 80 ml/min on the receptor field for 30 s.
The conduction velocity was measured by observing the latency to electric shocks (0.1-0.5 ms, 0.5-3.0 mA) applied on the receptor field with a pair of silver electrodes 3-5 mm apart. The conduction distance was estimated with a silk thread of 0.8 G positioned on the path of the nerve.
The nerve discharges and the stimulation pulses were recorded on an FM magnetic tape recorder for off-line computer analysis with suitable software (CED 1401plus and Spike2 for Windows). The spontaneous activity (average discharge frequency in pulses per second) and the changes in discharge caused by the various stimuli were measured.
The fibres were classified as peripheral and central according to the localization of their receptor field. […] Depending on the localization of the receptor field the fibres were classified as far from the wound or close to or bordering on the wound. The control data were obtained from intact corneas.
The response of the polymodal nociceptive fibres to chemical stimulation was investigated in the fibres whose receptor field touched the damaged area and in those whose receptor field was outside of and far from the lesion. The spontaneous activity and the discharge of the fibres in response to stimulation with CO2 were measured before and after topical application of carbamazepine (0.001-0.01%), phenyloin (5,5-diphenylhydantoin) (0.001-0.1%), mexiletine (0.001-0.1%), lidocaine (0.0005-0.01%) and tocaidine (0.001-0.01%).

[2] = system: sensations of ocular dryness that appear after photorefractive surgery of the LASIK type; test: Clinical study of topical carbamazepine versus placebo on ocular dryness after LASIK surgery; assay type: in vivo, human; conditions: ophthalmic solution at 0.01%, one drop in the operated eye twice a day for 14 days after LASIK
Method: A clinical study was carried out for comparing the attenuating effect produced by the topical administration of carbamazepine and of a placebo on the sensations of ocular dryness that appear after photorefractive surgery of the LASIK type. The study included 124 subjects, men and women in the age range 21-45 years, who underwent routine, elective, unilateral LASIK surgery for correction of myopia. The carbamazepine was administered in ophthalmic solution at 0.01%. After surgery, the subjects received one drop of the study medication in the operated eye, twice a day for 14 consecutive days. Postoperative examinations were carried out on days 1, 3, 7 and 14. The efficacy of the treatment was assessed by measuring the sensation of ocular dryness, pain intensity, and the overall analgesic efficacy, employing independent visual-analogy scales. The symptoms of eye inflammation, burning/stinging sensations, lacrimation etc. were also recorded.

Structure (SMILES) | responses evoked by pulses of CO2 of 30 s duration [1] | spontaneous activity of the fibres innervating the zones around the lesion [1] | incidence of symptoms of dryness throughout the day [2] | incidence of the symptoms of ocular dryness ([2]; statistically significant)
CCN(CC)CC(=O)Nc1c(C)cccc1C [lidocaine] | dose-dependent decrease | dose-dependent decrease |  | 
O=C1NC(=O)C(c2ccccc2)(c2ccccc2)N1 [phenyloin, 5,5-diphenylhydantoin] | dose-dependent decrease | dose-dependent decrease |  | 
NC(=O)N1c2ccccc2C=Cc2ccccc21 [carbamazepine] | dose-dependent decrease | dose-dependent decrease | significantly lower | more reduced incidence
Cc1cccc(C)c1NC(=O)C(C)N (stereo not drawn) [tocaidine] | dose-dependent decrease | dose-dependent decrease |  | 
Cc1cccc(C)c1OCC(C)N (stereo not drawn) [mexiletine] | dose-dependent decrease | dose-dependent decrease |  | 
